The text below walks through data of US5712129A, “Rapamycin derivative with antimicrobial, anticancer and immunomodulation activity” (SmithKline Beecham p. l. c., priority 1993, dated 1998).

Where two headings read alike, the source gives them in different places.

This test deals with Spleen cells. As to the kind of experiment: Mitogenesis assay for immunosuppressive activity (concanavalin A stimulated spleen cells, 3H-thymidine). Particulars: Mus musculus, read-out: Mitogenesis (IC50). It counts as cell-based, BDF1 female mice. As for the experimental part: Spleen cells for BDF1 female mice were established in RPMI with 10% fetal calf serum at 5×10^6 /mL. One hundred […] of this suspension (5×10^5 cells) were dispensed into 96-well round-bottomed microtiter plates (Linbro, Flow Laboratories). Concanavalin A (5 μg/ml) was added as the mitogenic stimulus, and the final volume in the microtiter wells was adjusted to 200 μL with RPMI. Cell cultures were incubated for 72 hours at 37° C. in a 5% CO2 atmosphere and pulsed with 0.5 μCi ^3 H-thymidine (specific activity […]) for the last 18 hours of the 72 hours culture. The cells were harvested on an automated multiple sample harvester and cell-associated radioactivity counted in a Beckman liquid scintillation counter. The results were expressed as the mean values derived from quadruplicate measurements. Cell viability was determined by trypan blue exclusion after 72 hours of incubation. Compounds to be tested were added to the microtiter plates at the appropriate dilutions prior to the addition of cells.

The IC50 is the concentration at which inhibition is half-maximal. For `CO[C@H]1C[C@@H]2CC[C@@H](C)[C@@](O)(O2)C(=O)C(=O)N2CCCC[C@H]2C(=O)O[C@H]([C@H](C)C[C@@H]2CC[C@@H](O)[C@H](OC)C2)CC(=O)[C@H](C)/C=C(\C)[C@@H](O)[C@@H](OC)C(=O)[C@H](C)C[C@H](C)/C=C/C=C/C=C/1C` [rapamycin], the concentration for half-maximal inhibition (IC50) worked out at 1 ± 1 nM.

`COC1CC2CCC(C)C(O)(O2)C(=O)C(=O)N2CCCCC2C(=O)OC(C(C)CC2CCC(O)C(O)C2)CC(=O)C(C)C=C(C)C(O)C(OC)C(=O)C(C)CC(C)C=CC=CC=C1C` (centres unmarked) [42-O-demethylrapamycin]: under “Concanavalin A 5 μg/ml, 72 hours at 37° C., 3H-thymidine pulse last 18 hours”, the 50% inhibitory concentration (IC50) is 3 nM.
